# Tests used:
# [1] = Critical micelle concentration from surface tension measurements (pendant drop); format: physicochemical; settings: 19 : 1 H2O : EtOH solution at 298 K
# Source text: Section 2: General Methods
# General remarks: A positive pressure of nitrogen and oven dried glassware were used for all reactions.
# All solvents and starting materials were purchased from known chemical suppliers or available stores and used without any further purification unless specifically stipulated. The NMR spectra were obtained using a Burker AV2 400 MHz, AVNEO 400 MHz or Avance III […] spectrometer. The data was processed using ACD Labs or MestreNova software. NMR Chemical shift values are reported in parts per million (ppm) and calibrated to the centre of the residual solvent peak set (s = singlet, br = broad, d = doublet, t = triplet, q = quartet, m = multiplet). Fluorescence and fluorescence polarisation measurements were conducted using a Clariostar plate reader and analysed using MARS data analysis […]
# Tensiometry Studies: All the samples were prepared in an EtOH:H2O (1:19) solution. All samples underwent an annealing process in which the various solutions were heated to approximately 40 °C before being allowed to cool to room temperature, allowing each sample to reach a thermodynamic minimum. All samples were prepared through serial dilution of the most concentrated sample. Three surface tension measurements were obtained for each sample at a given concentration, using the […]
# pendant drop method. […]
# Data
# [2] = system: phospholipid vesicles (PC, PG, PE-PG mix, E. coli total, E. coli polar); assay: Vesicle membrane binding assay (FP), comparison across the five vesicle types; settings: SSA 0.15 mM, in words
# Source text: For intrinsically fluorescent SSAs 5, 6 and 8–12, FP titration experiments enabled the observation of SSA: phospholipid vesicle interactions. Here, an increase in FP value indicates an increase in the apparent size of the SSA as it interacts with the phospholipid vesicle.
# The results of these studies have been summarised for convenience in Table 3 however, specific SSA: phospholipid vesicle interactions are also exemplified within Fig. 8. […] Here phospholipid vesicle selectivity appears to be driven by the presence of a methyl substituent appended from the benzothiazole unit, in addition to a urea-methyl/ethyl spacer-anionic functionality. Interesting the presence of the thiourea group, increasing SSA […] and increasing hydrogen bond donor acidity, while increasing the levels of vesicle interaction overall, decreased any specific SSA selectivity. […]
# Fluorescence polarisation: Lipid films were resuspended in Buffer (150 mM KCl, 10 mM HEPES, pH 7.4, 2 mM EGTA) and subjected to 9 freeze-thaw cycles in liquid nitrogen and extruded 20 times through a 200 nm polycarbonate membrane. Black bottom 96-well plates were prepared by serially diluting desired vesicle solution across the plate, the appropriate SSA solution (100 µL, 0.15 mM) was added to each well to give a total well volume of 200 µL. Fluorescent SSA solutions were set to a FP value of 100 mP. Data were acquired in endpoint mode. […]
# 1H NMR CPMG: 1H NMR CPMG3,4 spectra were obtained with a Bruker Avance III […] spectrometer equipped with a TCIP cryoprobe at 298 K. Samples were supplemented with 5 % D 2O and 0.02 mM 4,4-dimethyl4-silapentane-1-sulfonic acid (DSS). […]
# The P1 pulses were 9 µs at a power of 7.9 W. Presaturation was applied between acquisitions for 100 ms at a power level of 280 mW and acquisition was carried out of 85 2 µs. Water […]
# 180 o pulses of 1 ms. Repetition times were chosen to achieve suitable water suppression with the presat and watergate sequences used in 95 % H2O solution. The length of the CPMG element was chosen to achieve good differentiation between unbound and strongly bound ligands. Data was collected with 16,384 points and a spectral width of 16.0242 ppm, receiver gain was set to 128, with 512 scans, 8 dummy scans and an acquisition time of 0.85 s. Data was processed using MestreNova software. All spectra were automatically phased, baselined corrected using a polynomial function and calibrated to the centre of the DSS peak.
# Fitting of 1H NMR CPMG data: The data was fit to Michaelis Menten and Hill plot models and compared through R2 analysis using Origin 2022 software,5 growth/sigmoidal category, Hill/MichaelisMenten function, Levenberg Marquardt iteration algorithm. Vmax fixed to 100 % as this was the greatest proportion of SSA that could be coordinated to the nanodiscs. […]
smiles,measurement,setting,value
Cc1ccc2nc(-c3ccc(NC(=O)NCC(=O)O)cc3)sc2c1 [SSA 11],CMC,"[1]; unit printed in Figs S37-S40, not in Table 3, listed as 11",3.0 mM
same,CMC,"[1]; unit printed in Figs S37-S40, not in Table 3, listed as compound 11",3.03 mM
Cc1ccc2nc(-c3ccc(NC(=S)NCS(=O)(=O)O)cc3)sc2c1 [SSA 12],SSA: phospholipid vesicle interaction / selectivity (FP titration),[2],strong interaction with all phospholipid vesicles tested
same,CMC,"[1]; unit given in Figs S37-S40, not in Table 3",4.6 mM
Cc1ccc2nc(-c3ccc(NC(=O)NCCCS(=O)(=O)O)cc3)sc2c1 [SSA 10],SSA: phospholipid vesicle interaction / selectivity (FP titration),[2],little selectivity for different phospholipid membranes
same,CMC,"[1]; unit printed in Figs S37-S40, not in Table 3, listed as 10",14.8 mM
same,CMC,"[1]; unit printed in Figs S37-S40, not in Table 3, listed as compound 10",14.77 mM
Cc1ccc2nc(-c3ccc(NC(=O)NCCC(=O)O)cc3)sc2c1 [SSA 9],CMC,"[1]; unit printed in Figs S37-S40, not in Table 3, listed as 9",1.9 mM
same,CMC,"[1]; unit printed in Figs S37-S40, not in Table 3, listed as compound 9",1.92 mM
Cc1ccc2nc(-c3ccc(NC(=O)NCS(=O)(=O)O)cc3)sc2c1 [SSA 6],SSA: phospholipid vesicle interaction / selectivity (FP titration),[2],"limited selectivity with a preference for PC, PG and E. coli polar over the E. coli total and PG : PE mix"
O=C(NCS(=O)(=O)O)Nc1ccc(-c2nc3ccccc3s2)cc1 [SSA 8],SSA: phospholipid vesicle interaction / selectivity (FP titration),[2],little selectivity for different phospholipid membranes
same,CMC,"[1]; unit printed in Figs S37-S40, not in Table 3, listed as 8",5.2 mM
same,CMC,"[1]; unit printed in Figs S37-S40, not in Table 3, listed as compound 8",5.16 mM
